The values that follow come from patent publication US20260265176A1, “SUBSTITUTED CYCLOHEXENE AND CYCLOHEXANE INHIBITORS OF ORNITHINE AMINOTRANSFERASE” (Northwestern University, priority 2023, published 2026).

Holding throughout (format): biochemical
One assay has as its target T1, hGABA-AT (Homo sapiens, UniProt P80404).
T1 construct: made in house; host or cells: Expi293 cells
The assay can be described thus: Inactivation of hGABA-AT, coupled enzyme assay (kinetic constants). The conditions noted are these: for kinact/K1, hGABA-AT: inactivation of hGABA-AT, K1 and kinact not determinable. The protocol: (§1) Recombinant human brain γ-aminobutyric acid aminotransferase (hGABA-AT) was expressed and purified according to literature procedures with slight modifications.^26 Briefly, pelleted Expi293 cells were resuspended into buffer A containing 50 mM K4O7P2 pH 8.6, 300 mM NaCl, and 100 μM PLP. The suspension was lysed using four repeat cycles of sonication (10 s on, 10 s off, 20% amplitude) on ice followed by the addition of 12.5 mM MgCl, 125 μM CaCl, and 5 mg of lyophilized DNase I. The lysate incubated on ice for 60 minutes with periodic inversions followed by a two step centrifugation procedure to pellet cell debris. Step one included centrifugation at 18000 rpm for 60 minutes at 4° C. followed by the collection of supernatant and a secondary step at 20000 rpm for 45 minutes. The supernatant was collected, and the sample was loaded into a disposable 0.45 μm bottle-top vacuum filter system to remove remaining cell debris. The resulting sample was then loaded onto a Co^2+ immobilized metal affinity chromatography column pre-equilibrated with buffer A. The column was washed with 40 mL of buffer A before hGABA-AT was eluted using a step-wise elution gradient of buffer A supplemented with 200 mM imidazole. The step-wise gradient totaled 5 steps of increasing imidazole concentration (1 mM, 2 mM, 5 mM, 100 mM, 200 mM). Individual 4 mL fractions containing hGABA-AT were combined and concentrated to a volume of 3 mL using a 30000 Da molecular weight cutoff (MWCO) Amicon Ultra centrifugal filter device. For further purification, the sample was loaded onto a HiLoad Superdex-200PG column (16 mm×600 mm) pre-equilibrated with buffer A and subjected to size exclusion chromatography at a flow rate of 0.25 mL/min. PYCR1 was purified according to previously published protocols.^38 Coupled enzyme assays for hGABA-AT, hOAT, Ala-AT, and Asp-AT were carried out according to previous procedures.^26

The target of assay [1] is T2, hOAT (Homo sapiens, UniProt P04181).
T2 construct: made in house; host or cells: Escherichia coli BL21 (DE3)
T2 sequence (P04181 26-439): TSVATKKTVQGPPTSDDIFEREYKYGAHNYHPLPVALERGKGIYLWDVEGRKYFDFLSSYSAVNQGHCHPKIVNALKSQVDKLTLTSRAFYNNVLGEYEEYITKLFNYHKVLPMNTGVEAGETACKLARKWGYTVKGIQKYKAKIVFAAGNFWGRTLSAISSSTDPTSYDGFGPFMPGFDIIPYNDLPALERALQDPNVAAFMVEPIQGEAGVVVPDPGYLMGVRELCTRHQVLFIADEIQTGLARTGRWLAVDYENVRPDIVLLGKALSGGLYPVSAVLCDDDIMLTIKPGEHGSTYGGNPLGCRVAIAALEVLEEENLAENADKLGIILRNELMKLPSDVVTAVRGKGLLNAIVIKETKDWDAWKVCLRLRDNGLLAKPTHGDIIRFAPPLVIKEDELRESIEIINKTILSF
The assay can be described thus: Inactivation of hOAT, coupled enzyme assay (kinetic constants). The conditions noted are these: for kinact / kinact/K1, hOAT / Ki: inactivation of hOAT; for Ki: read-out: K1, hOAT. The procedure:
as §1

The target in assay [2] is T2, hOAT. Kind of assay: Partition ratio / turnover number by titration of hOAT with inactivator. The note with it: for partition ratio: turnover number minus one. From the text: Determination of the Turnover Mechanism to Metabolites The partition ratio of an MBI is the ratio of compound that acts as a substrate relative to the compound that inactivates the enzyme. Ideally, plotting the enzyme activity remaining after inactivation versus equivalents of compound added will provide a straight line from 100 to 0% enzyme activity remaining. The x-intercept of this line would give the number of inactivator molecules required to inactivate a single enzyme active site (the turnover number). This number represents the total number of compound molecules that were engaged by the active site until the enzyme was inactivated. Of these compounds, only the final one will inactivate the enzyme, and the others will have been consumed as substrates. As a result, the partition ratio is the turnover number minus one (assuming a 1:1 stoichiometry of inactivator to enzyme in the inactivated complex).
The partition ratio of 17 was determined by titrating a known amount of hOAT with varying equivalents of inactivator (FIG. 7). The linear relationship of the remaining enzymatic activity was extrapolated to yield the exact number of equivalents of 17 to inactivate the enzyme completely. From this we determined the turnover number to be 4.27 and thus the partition ratio of 17 to be 3.27.
The turnover number for 17 was determined to be 2.2 by titrating a fixed amount of hOAT with varying equivalents of 17, measuring the remaining enzyme activities for the different equivalents of inhibitor, and employing the method of Pham et al.^32 (FIG. 24). The partition ratio, therefore, is 1.2.
The partition ratio was calculated using previous protocols.^26,28

Assay [3] concerns the target T2, hOAT. The assay can be described thus: Transient-state stopped-flow spectrophotometry of hOAT reacting with inactivator. The note with it: hyperbolic fit of kobs vs inactivator concentration, hOAT 17 μM, 20° C. The procedure:
Vertical arrows indicate the sequence of the observed spectra after initiating the experiment. […] A sample of hOAT (17 μM) was mixed with 17 (0-11 mM) using a stopped-flow spectrophotometer, and the reaction was observed between 300 and 800 nm for 150 sec using CCD detection. Several representative spectra from the data set are shown here.
FIG. 16C depicts the dependence of observed rate constants on the concentration of [5]. Fitting to a rectangular hyperbolic function (kobs=klimit[5]/K[5]+[5] returned an observed limiting rate constant of 0.20±0.01 s^−1 and a dissociation constant for reversible formation of the external aldimine of 2.9±0.4 mM.
The data collected using stopped-flow spectrophotometry serves as additional evidence for the proposed mechanism. […]
The subsequent increase in absorbance at 325 nm would thus report the accumulation of both the turnover and inhibition products, with no difference in rates.
Transient-State Kinetic Characterization of hOAT with […]: A sample of hOAT (17 μM) was mixed with 17 (0-11 mM) at 20° C. using a rapid mixing stopped-flow spectrophotometer (TgK Scientific) equipped with charge-coupled device (CCD) detection, allowing for the collection time-resolved spectra. […] A reconstructed time zero point was included in the data and was obtained by adding the spectrum of the enzyme and the spectrum of the inhibitor when measured separately. […]

Assay [4] concerns the target T2, hOAT. The assay can be described thus: Time-dependent reactivation experiment (dialysis) of hOAT inactivated by 17. The protocol: Mass spectrometry, however, might differentiate those possibilities. To confirm irreversible inactivation of hOAT by 17, a time-dependent reactivation experiment (dialysis) was performed. […] Aliquots at different time intervals were collected and assayed to detect restored enzyme activity. […] It takes approximately 10 equiv of 17, however, to produce complete enzyme inactivation.
The dialysis experiment was conducted using previous protocols.^26,38

The mark [5] stands for this setting: listed as (±) 22, hydrochloride.
Where [6] appears, read: from turnover number/partition ratio study, FIG. 24.

Structures are written as SMILES.

T1 sequence (P80404 29-500): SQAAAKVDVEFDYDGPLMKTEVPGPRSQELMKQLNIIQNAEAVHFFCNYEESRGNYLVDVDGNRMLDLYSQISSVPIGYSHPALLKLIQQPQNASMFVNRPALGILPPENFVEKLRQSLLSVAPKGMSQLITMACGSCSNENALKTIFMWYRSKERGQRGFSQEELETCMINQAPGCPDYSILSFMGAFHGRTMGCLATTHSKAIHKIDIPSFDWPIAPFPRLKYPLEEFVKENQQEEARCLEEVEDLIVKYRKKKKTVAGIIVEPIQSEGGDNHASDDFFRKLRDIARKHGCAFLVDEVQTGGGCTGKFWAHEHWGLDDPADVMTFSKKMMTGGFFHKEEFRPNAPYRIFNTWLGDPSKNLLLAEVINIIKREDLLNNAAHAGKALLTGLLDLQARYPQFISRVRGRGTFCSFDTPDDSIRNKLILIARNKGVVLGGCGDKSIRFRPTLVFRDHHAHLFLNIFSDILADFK

`Cl.N[C@@H]1C[C@H](C(=O)O)CC(F)(F)C1` (racemic) [(±)22, cis-5-Amino-3,3-difluorocyclohexane-1-carboxylic acid hydrochloride]: the “inhibition of hGABA-AT (in words)” value is “Weak reversible inhibition at 10 mM” against hGABA-AT (hydrochloride) and “little or no inhibitory effect” at hGABA-AT (setting [5]). The “inhibition of hOAT (in words)” value against hOAT [1] (hydrochloride) is listed as “No inhibition up to 10 mM”; at hOAT [1] (setting [5]) it was “little or no inhibitory effect”.
As a reminder, the kinact is the rate constant of inactivation at saturating inhibitor. With `Cl.N[C@H]1C=C(C(=O)O)CC(F)(F)C1` [Compound 17, (R)-3-amino-5,5-difluorocyclohex-1-ene-1-carboxylic acid hydrochloride], at hOAT [2] (setting [6]), the “share of compound undergoing turnover to a product and PMP” value worked out at 55%; the “share of turnover resulting in inactivation” value was 45%. The turnover number on hOAT [2] (linear extrapolation of remaining activity, FIG. 7) is 4.27. Besides, on hOAT [2] (method of Pham et al., FIG. 24), the turnover number is on record as 2.2. Moreover, the partition ratio at hOAT [2] (FIG. 7) was 3.27. The partition ratio at hOAT [2] (FIG. 24) was determined as 1.2. For the same compound, the “observed limiting rate constant” value at hOAT [3] turned out to be 0.20 ± 0.01 s⁻¹. Moreover, the Kd at hOAT [3] (read-out: dissociation constant for reversible formation of the external aldimine) is 2900 ± 400 µM. Moreover, at hGABA-AT, the “kinact/K1, hGABA-AT” value was 2.83 M⁻¹ s⁻¹. Further, the “enzymatic activity recovered after dialysis” value on hOAT [4] (72 hours of dialysis, hOAT treated with 0.6-10 equivalents of 17) is listed as “No enzymatic activity was recovered”. In addition, on hOAT [4] (hOAT), the “equivalents needed to produce complete enzyme inactivation” value is listed as “approximately 10 equiv”. In addition, at hOAT [1], the kinact is 0.00467 s⁻¹; the “kinact/K1, hOAT” value turned out to be 17.3 M⁻¹ s⁻¹; the Ki was 270 ± 70 µM. Besides, the kinact/KI at hOAT [1] (read-out: overall efficiency (kinact/KI) against hOAT (converted)) is 17.3 M⁻¹ s⁻¹.
As to `Cl.N[C@H]1CC(C(=O)O)=CC(F)(F)C1` [Compound 17a, (S)-5-amino-3,3-difluorocyclohex-1-ene-1-carboxylic acid hydrochloride], the “kinact/K1, hGABA-AT” value on hGABA-AT was found to be 2 M⁻¹ s⁻¹. Moreover, on hOAT [1], the maximal inactivation rate constant (kinact) is 0.0025 s⁻¹; the “kinact/K1, hOAT” value turned out to be 1.83 M⁻¹ s⁻¹; the Ki was found to be 1200 ± 400 µM. The “kinact/KI, fold less effective than that of 17 for hOAT” value on hOAT [1] (relative to 17) turned out to be 10 fold.
